Changes are numbered by the printed parent chain.
Experiments:
Assay in all cases: fluorimetric titration, […] fit
Assay type in all cases: binding
hDPP III [1] = biological target: T1, hDPP III (Homo sapiens, UniProt Q9NY33, E451A); details: read-out: logKs (converted)
T1 construct: gene DPP3; recombinant, C-terminal His-tag, expressed in E. coli from pET21b, Ni-NTA purified
T1 sequence (Q9NY33 2-737 E451A): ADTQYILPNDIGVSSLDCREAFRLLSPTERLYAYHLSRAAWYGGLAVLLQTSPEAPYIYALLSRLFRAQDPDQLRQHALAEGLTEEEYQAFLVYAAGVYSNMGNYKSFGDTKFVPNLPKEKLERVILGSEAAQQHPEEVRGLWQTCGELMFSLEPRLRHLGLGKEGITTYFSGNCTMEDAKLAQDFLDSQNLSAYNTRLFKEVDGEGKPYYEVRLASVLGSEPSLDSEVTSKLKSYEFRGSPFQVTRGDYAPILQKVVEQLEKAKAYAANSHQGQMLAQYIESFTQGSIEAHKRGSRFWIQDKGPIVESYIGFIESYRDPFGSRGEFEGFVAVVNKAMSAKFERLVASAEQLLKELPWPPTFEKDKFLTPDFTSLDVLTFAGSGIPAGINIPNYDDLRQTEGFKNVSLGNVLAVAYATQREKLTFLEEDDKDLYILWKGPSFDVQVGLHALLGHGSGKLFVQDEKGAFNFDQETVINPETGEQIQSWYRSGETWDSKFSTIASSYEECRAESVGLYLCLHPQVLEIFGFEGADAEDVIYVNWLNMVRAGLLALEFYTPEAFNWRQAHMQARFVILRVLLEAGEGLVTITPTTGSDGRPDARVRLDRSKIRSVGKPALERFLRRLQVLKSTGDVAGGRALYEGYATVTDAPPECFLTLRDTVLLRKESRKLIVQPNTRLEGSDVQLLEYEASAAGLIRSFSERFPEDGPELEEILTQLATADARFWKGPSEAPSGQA

hDPP III [2] = biological target: T2, hDPP III (Homo sapiens, UniProt Q9NY33); details: TRIS-HCl buffer I = 0.02 M, pH 7.4
T2 construct: gene DPP3; recombinant, C-terminal His-tag, expressed in E. coli from pET21b, Ni-NTA purified
T2 sequence (Q9NY33 2-737): T1 sequence (Q9NY33 2-737 E451A) with A450E

[3] = biological target: T3, BSA (bovine serum albumin) (Bos taurus, UniProt P02769); details: read-out: logKs (converted)
T3 construct: gene ALB; commercial native protein (Sigma Aldrich), mature serum albumin
T3 sequence (P02769 25-607): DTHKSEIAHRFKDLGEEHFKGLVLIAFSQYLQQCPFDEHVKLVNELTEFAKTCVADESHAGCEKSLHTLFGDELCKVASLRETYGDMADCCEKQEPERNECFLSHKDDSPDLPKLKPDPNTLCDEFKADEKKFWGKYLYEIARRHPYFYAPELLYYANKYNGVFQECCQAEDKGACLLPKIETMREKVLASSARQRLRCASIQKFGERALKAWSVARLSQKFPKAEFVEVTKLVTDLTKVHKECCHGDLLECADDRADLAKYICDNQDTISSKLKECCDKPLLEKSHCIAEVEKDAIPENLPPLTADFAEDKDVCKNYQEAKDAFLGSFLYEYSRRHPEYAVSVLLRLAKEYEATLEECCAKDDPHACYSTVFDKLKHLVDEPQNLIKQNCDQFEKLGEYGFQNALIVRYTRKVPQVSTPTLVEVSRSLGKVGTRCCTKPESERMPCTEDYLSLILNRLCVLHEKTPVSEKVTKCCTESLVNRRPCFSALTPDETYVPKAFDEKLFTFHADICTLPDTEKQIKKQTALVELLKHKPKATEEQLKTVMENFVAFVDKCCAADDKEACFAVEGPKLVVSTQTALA

Cc1cc(-c2cn(C(CCCCN)C(=O)O)nn2)cc(C)c1B(c1c(C)cc(N(C)C)cc1C)c1c(C)cc(N(C)C)cc1C (stereo not drawn) [compound 1, Triaryl-borane-amino acid conjugate 1]
Kd (hDPP III [1]): 0.251 µM | logKs (hDPP III [2]; λexc 400 nm): performed fluorimetric titrations with wild type (wt) hDPP III | Kd [3]: 0.501 µM

Cc1cc(-c2cn(C(CCCCNC(=O)CCCc3ccc4ccc5cccc6ccc3c4c56)C(=O)O)nn2)cc(C)c1B(c1c(C)cc(N(C)C)cc1C)c1c(C)cc(N(C)C)cc1C (stereo not drawn) [compound 2, Triaryl-borane-amino acid-pyrene conjugate 2]
Kd (hDPP III [1]): 0.398 µM | logKs (hDPP III [2]; λexc 342 and 403 nm): performed fluorimetric titrations with wild type (wt) hDPP III | Kd [3]: 0.398 µM

— publication PMC8398983, “Triarylborane Dyes as a Novel Non-Covalent and Non-Inhibitive Fluorimetric Markers for DPP III Enzyme” (Molecules, 2021)
